Data reported in US20230002374A1, “GPR52 MODULATOR COMPOUNDS” (Heptares Therapeutics Limited, priority 2019, published 2023).

How the values were obtained:
[1] = Pharmacokinetic profiling in rat (IV and PO); assay type: in vivo, male Sprague-Dawley rats; settings: male, Sprague-Dawley, plasma, n = 3, mean ± standard deviation
Procedure: The pharmacokinetic profiles of Example 1 were assessed in male Sprague-Dawley rats via intravenous (IV) and oral (per os, PO) routes of delivery. Pharmacokinetic data (mean values±standard deviation) for Example 1 of the invention are detailed in Table 5. Methods: For pharmacokinetic analysis, groups of three male Sprague-Dawley rats, ranging in weight between 200 and 230 g, were administered a single dose of Example 1 via IV or PO route, using the doses, dose volumes and vehicles specified in Table 5. […] WinNonlin v8.2 statistics software (Pharsight Corporation, California, USA) was used to generate pharmacokinetic parameters using non-compartmental analysis.

[2] = Brain penetration in rat (unbound brain-to-plasma ratio, IV); assay type: in vivo, male Sprague-Dawley rats; settings: male, Sprague-Dawley, brain and plasma, 1 mg/kg, 10 min post-dose, n = 3
Procedure: Plasma and brain exposure were evaluated to assess the brain penetration of Example 1, following IV administration. Unbound brain-to-plasma ratio (Kp,uu) was calculated, as detailed in Table 5, following experimental determination of binding in rat plasma and brain homogenate. Methods: For brain penetration assessment, male Sprague-Dawley rats (n=3) were administered a single 1 mg/kg dose (formulated in 10% DMAC+10% Solutol HS15+80% saline) via the IV route. After 10 min post-dose, animals were sacrificed and brains extracted, homogenised with 2 volumes (w/v) of 50 mM sodium phosphate buffer (pH 7.4), and analysed by LC-MS/MS. Blood samples were removed at the same time point via tail vein bleed, centrifuged and the plasma analysed by LC-MS/MS. To permit calculation of unbound brain-to-plasma ratio (Kp,uu), test compound binding in rat plasma and brain homogenate was performed, using Rapid Equilibrium Dialysis (RED). […] Fraction unbound (Fu) in plasma and brain was calculated using the following formula, then used to correct total plasma and brain concentrations to derive the Kp,uu: Fraction bound=(Total plasma or brain ratio)−(Total buffer ratio)/Total plasma or brain ratio Fraction unbound (Fu,brain or plasma)=1−Fraction bound For correction of dilution in brain binding assay: Undiluted Fu,brain=(1/dilution factor)/((1/Fv diluted))−1)+(1/dilution factor) Where dilution factor=4

[3] = tested on: D-amphetamine-induced hyperlocomotor response; assay: Amphetamine-induced locomotor activity in rat; assay type: in vivo, male Sprague-Dawley rats; settings: 10 mg/kg PO, 60 min before D-amphetamine SC; activity over two hours
Procedure: The rat amphetamine-induced locomotor hyperactivity test is used to model the enhanced mesolimbic dopaminergic activity thought to contribute to psychosis in humans. […] Male Sprague-Dawley rats (200-250 g) were housed in groups with a 12 h light/dark cycle (lights on at 07.00), at an ambient temperature of 21±2° C. and with standard pelleted diet and water ad libitum. Testing was carried out in the light phase. On the day of the experiment, animals were habituated to the locomotor cages for a 60-minute period.
Locomotor activity was assessed for a two hour period after D-amphetamine treatment. Data are back-transformed means, adjusted for differences between treatment groups in activity during the 30 minutes prior to treatment with test compound or vehicle (n=10-12). Analysis was by general linear model with treatment, cohort and rack as factors. SEMs were calculated from the residuals of the statistical model.
Significant differences vs D-amphetamine are represented as *p<0.05, **p<0.01, ***p<0.001.

[4] = tested on: subchronic PCP induced cognitive deficit; assay: Subchronic PCP-induced reversal learning deficit in rat; assay type: in vivo, female Lister Hooded rats; settings: 2 h prior to testing; for reversal of subchronic PCP reversal learning deficit (percent correct responding, reversal phase): vs vehicle-treated subchronic PCP group
Procedure: Testing was carried out in the light phase. Rats underwent operant training firstly to press the left/right lever for a food reward in the presence or absence of a visual cue, and then to respond to the opposite contingency. The reversal learning task was introduced as follows. On the day before each reversal task session, a full 30-minute operant training session was conducted in order to ensure stable responding. In the initial task, animals were first exposed to a five-minute period during which the contingency (cue position relative to active lever) was the same as for the operant training session. This was followed by a 2-minute time-out period, which was signalled by the house-light being turned off. In the subsequent 5-minute period (reversal task), the contingency was reversed. Responses made on the correct and incorrect levers were recorded. Animals undertook several of these reversal learning task sessions before the beginning of the drug studies in order to ensure that they attained a stable level of performance in both phases of the task. […] At this stage, training ceased and rats were treated with PCP (2 mg/kg, IP or vehicle 0.9% saline, IP) for 7 days followed by at least 7-days washout period.
In the initial phase, the reward contingency was the same as the previous day and in the reversal phase the reward contingency was reversed.
Data are presented as mean total number of lever presses (+SEM) and percent correct response (+SEM). […] Statistical significance was assumed when P<0.05 and was determined as follows: one-way ANOVA (IBM SPSS Statistics 22) was performed in order to detect main effect of drug treatment in the initial and reversal tasks. Where a significant effect was detected, a post-hoc LSD t-test was performed in order to compare treatment groups versus the appropriate control in the reversal phase of the test.
Data are shown as mean±s.e.m. % correct responding (n=8-10) and were analysed by ANOVA and post-hoc Student's t-test.
Data are shown as the mean total number of lever presses, correct responses are shown as clear bars and incorrect responses are shown as shaded bars (n=8-10).

SMILES	clearance ([1]; Rat IV, 1 mg/kg) [mL/min/kg]	bioavailability ([1]; Rat PO, 3 mg/kg) [%]	Kp uu at 10 min [2]	reduction of the D-amphetamine-induced hyperlocomotor response [3]	reversal of subchronic PCP reversal learning deficit (percent correct responding, reversal phase) ([4]; 10 mg/kg PO)	reversal of subchronic PCP reversal learning deficit (percent correct responding, reversal phase) ([4]; 30 mg/kg PO)	effect on total number of lever presses ([4]; 3, 10 and 30 mg/kg PO, scPCP treated rats)
O=C1NCCc2c1cnn2-c1ccnc(Cc2cc(F)cc(C(F)(F)F)c2)c1 [Example 1, 1-(2-(3-fluoro-5-(trifluoromethyl)benzyl)pyridin-4-yl)-1,5,6,7-tetrahydro-4H-pyrazolo[4,3-c]pyridin-4-one]	16.4 ± 1	40.4 ± 6	0.35 ± 0.03	reached statistical significance at 10 mg/kg	significantly (P<0.05−P<0.001) reversed the deficit	significantly (P<0.05−P<0.001) reversed the deficit	no significant effects
Cc1cc(-n2nc(Cc3cc(F)cc(C(F)(F)F)c3)nc2C)ccc1C(N)=O [FTBMT, reference compound]				showed a trend towards a reduced D-amphetamine-induced hyperlocomotor response but statistical significance was not reached			
